Measurements taken from the supplement of paper PMC10307832.

Key:
Test in all cases: relative viability (nuclei count vs DMSO), 5 days (fraction); higher = more cells survive
[1] = test system: NCI-H1793
How it was run: (§1)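 Lung cancer cell lines in 1536-well plates were dosed by pin tool the day after seeding, either with one drug alone or with a fixed anchor-drug dose plus five library-drug doses (not always all listed) in √10 steps. After 5 days, cells were fixed and their nuclei stained in one step (final 0.05% Triton X-100, 1% formaldehyde, 1 ug/ml Hoechst), then counted on 4× images. Relative viability is the nuclei count in treated wells divided by that in vehicle wells. Values are medians of duplicate plates.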

[2] = test system: NCI-H1944
How it was run: as §1

[3] = test system: NCI-H1993
How it was run: as §1

[4] = test system: NCI-H2085
How it was run: as §1

[5] = test system: NCI-H2087
How it was run: as §1

[6] = test system: NCI-H23
How it was run: as §1

[7] = test system: NCI-H2405
How it was run: as §1

[8] = test system: NCI-H322M
How it was run: as §1

[9] = test system: NCI-H520
How it was run: as §1

[10] = test system: NCI-H650
How it was run: as §1

[11] = test system: SK-MES-1
How it was run: as §1

[12] = test system: UMC-11
How it was run: as §1

For `Clc1ccc(Nc2nnc(Cc3ccncc3)c3ccccc23)cc1` [Vatalanib] + CC(=O)Nc1cccc(-n2c(=O)n(C3CC3)c(=O)c3c(Nc4ccc(I)cc4F)n(C)c(=O)c(C)c32)c1 [Trametinib] (partner 0.02 µM), the relative viability ([1]; first compound 1.265 µM) was 0.388, the relative viability ([1]; first compound 4 µM) was 0.425 and the relative viability ([2]; first compound 0.04 µM) was 0.42. The relative viability ([2]; first compound 0.1265 µM) was 0.373, the relative viability ([2]; first compound 0.4 µM) was 0.438 and the relative viability ([2]; first compound 1.265 µM) was 0.425. The relative viability ([2]; first compound 4 µM) was 0.386, the relative viability ([3]; first compound 0.04 µM) was 0.539 and the relative viability ([3]; first compound 0.1265 µM) was 0.452. The relative viability ([3]; first compound 0.4 µM) was 0.54, the relative viability ([3]; first compound 1.265 µM) was 0.459 and the relative viability ([3]; first compound 4 µM) was 0.49. It also gave a relative viability ([4]; first compound 0.04 µM) of 0.516, a relative viability ([4]; first compound 0.1265 µM) of 0.384 and a relative viability ([4]; first compound 0.4 µM) of 0.645. The relative viability ([4]; first compound 1.265 µM) was 0.484, the relative viability ([4]; first compound 4 µM) was 0.735 and the relative viability ([5]; first compound 0.04 µM) was 0.245. The relative viability ([5]; first compound 0.1265 µM) was 0.197, the relative viability ([5]; first compound 0.4 µM) was 0.249 and the relative viability ([5]; first compound 1.265 µM) was 0.194. It also gave a relative viability ([5]; first compound 4 µM) of 0.179, a relative viability ([6]; first compound 0.04 µM) of 0.308 and a relative viability ([6]; first compound 0.1265 µM) of 0.296. For the same compound, the relative viability ([6]; first compound 0.4 µM) was 0.356, the relative viability ([6]; first compound 1.265 µM) was 0.363 and the relative viability ([6]; first compound 4 µM) was 0.419. For the same compound, the relative viability ([7]; first compound 0.04 µM) was 0.696, the relative viability ([7]; first compound 0.1265 µM) was 0.568 and the relative viability ([7]; first compound 0.4 µM) was 0.683. For the same compound, the relative viability ([7]; first compound 4 µM) was 0.557, the relative viability ([8]; first compound 0.04 µM) was 0.416 and the relative viability ([8]; first compound 0.1265 µM) was 0.51. For the same compound, the relative viability ([8]; first compound 0.4 µM) was 0.552, the relative viability ([8]; first compound 4 µM) was 0.517 and the relative viability ([9]; first compound 0.04 µM) was 0.794. For the same compound, the relative viability ([9]; first compound 0.1265 µM) was 0.654, the relative viability ([9]; first compound 0.4 µM) was 0.766 and the relative viability ([9]; first compound 1.265 µM) was 0.615. For the same compound, the relative viability ([9]; first compound 4 µM) was 0.602, the relative viability ([10]; first compound 0.04 µM) was 0.941 and the relative viability ([10]; first compound 0.1265 µM) was 0.796. For the same compound, the relative viability ([10]; first compound 0.4 µM) was 0.997, the relative viability ([10]; first compound 1.265 µM) was 0.924 and the relative viability ([10]; first compound 4 µM) was 0.904. It also gave a relative viability ([11]; first compound 0.04 µM) of 0.507, a relative viability ([11]; first compound 0.1265 µM) of 0.503 and a relative viability ([11]; first compound 0.4 µM) of 0.573. The relative viability ([11]; first compound 1.265 µM) was 0.548, the relative viability ([11]; first compound 4 µM) was 0.507 and the relative viability ([12]; first compound 0.04 µM) was 0.761. The relative viability ([12]; first compound 0.1265 µM) was 0.769, the relative viability ([12]; first compound 0.4 µM) was 0.418 and the relative viability ([12]; first compound 1.265 µM) was 0.688. For the same compound, the relative viability ([12]; first compound 4 µM) was 0.847.
